In patent US12178793B2, “Ophthalmic compositions containing a nitric oxide releasing prostamide” (NICOX SA, priority 2018, dated 2024):
Values after ≈ are worked out from the molar mass of the structure shown.

Tests used:
[1] = cited from earlier work
[2] = Aqueous solubility of the active ingredient; assay type: physicochemical; conditions: water, read-out: minimum aqueous solubility
Description: Hexanoic acid, 6-(nitrooxy)-, (1S,2E)-3-[(1R,2R,3S,5R)-2-[(2Z)-7-(ethylamino)-7-oxo-2-hepten-1-yl]-3,5-dihydroxycyclopentyl]-1-(2-phenylethyl)-2-propen-1-yl ester is a viscous oil having a minimum aqueous solubility of 0.02 mg/ml therefore aqueous pharmaceutical compositions of hexanoic acid, 6-(nitrooxy)-, (1S,2E)-3-[(1R,2R,3S,5R)-2-[(2Z)-7-(ethylamino)-7-oxo-2-hepten-1-yl]-3,5-dihydroxycyclopentyl]-1-(2-phenylethyl)-2-propen-1-yl ester must contain solubilizing agents that increase the water solubility of the compound and allow achieving therapeutically active concentrations of the compound.

[3] = Solubility in aqueous solutions at pH 6.0 containing a solubilizing agent; assay type: physicochemical
[4] = Pharmacokinetic evaluation after single ocular instillation, Study 2 (bimatoprost free acid in aqueous humor); assay type: in vivo, Dutch Belted Rabbits; conditions: bimatoprost free acid in aqueous humor as marker; benzalkonium chloride up to 0.02% w/w
Source text: Pharmacokinetic Evaluation in Dutch Belted Rabbits after Single Ocular Instillation
The aim of this study was to assess the aqueous humor content of bimatoprost free acid following topical ocular dosing with three different aqueous ophthalmic solutions containing hexanoic acid, 6-(nitrooxy)-, (1S,2E)-3-[(1R,2R,3S,5R)-2-[(2Z)-7-(ethylamino)-7-oxo-2-hepten-1-yl]-3,5-dihydroxycyclopentyl]-1-(2-phenylethyl)-2-propen-1-yl ester (0.042% w/w) in three different vehicles reported in Table 10.
Forty animals were included in the study. They were allocated into four groups of 10 animals/group and were administered with the above reported tested aqueous ophthalmic solutions
All animals included in the study were administered by ocular instillation of both eyes by means of a graduated pipette at a volume of […]. Two animals per formula were sacrificed at 0 h (pre-dose), 1 h, 2 h, 4 h and 8 h, and aqueous humor samples were obtained immediately from both eyes.

| solubility [2] [µg/mL] | solubility ([3]; aqueous solution at pH 6.0 containing 0.5% (w/w) macrogol 15-hydroxystearate (Kolliphor HS15)) | solubility ([3]; aqueous solution at pH 6.0 containing 0.5% (w/w) polysorbate 80 (Tween 80)) | effect of the excipient on the ocular penetration of NCX 470 [4] | Compound | intra ocular pressure (IOP)-lowering ([1]; Impagnatiello et al., Invest Ophthalmol Vis Sci. 2015) | IOP-lowering efficacy versus bimatoprost ([1]; vs equimolar doses of bimatoprost, vehicle 0.25% Tween 80, 0.02% BAK, 2% glycerine and 0.1% EDTA, Br J Pharmacol 2018) |
| --- | --- | --- | --- | --- | --- | --- |
| 20 (≈ 34.8 µM) | 0.070 % (w/w) | 0.074 % (w/w) |  | CCNC(=O)CCC/C=C\C[C@@H]1[C@@H](/C=C/[C@H](CCc2ccccc2)OC(=O)CCCCCO[N+](=O)[O-])[C@H](O)C[C@@H]1O [NCX 470, Hexanoic acid, 6-(nitrooxy)-, (1S,2E)-3-[(1R,2R,3S,5R)-2-[(2Z)-7-(ethylamino)-7-oxo-2-hepten-1-yl]-3,5-dihydroxycyclopentyl]-1-(2-phenylethyl)-2-propen-1-yl ester] | effective | greater IOP-lowering efficacy |
|  |  |  | did not exert any effect | benzalkonium chloride |  |  |
